Data published in US10238631B2, “Sesquiterpene derivatives and their use in inflammation or cancer treatment” (Academia Sinica, priority 2014, dated 2019).

Experiments:
MDA-MB-231 mammary tumor = assay: Orthotopic MDA-MB-231 mammary tumor growth in NOD/SCID mice; assay type: in vivo, mouse
Experimental: Mammary tumor response to DET analog (DETD-35) was studied using MDA-MB-231 cancer cell bearing NOD/SCID mice (6 weeks old). The mammary fat pad regions of mice were injected with 5×10^6 MDA-MB-231 cells in 100 μL (9.1 mg/mL) matrigel (Basement Membrane Matrix. Phenol Red-free) on day 0. Tumors were allowed to grow in the mice for 7 days, and then the animals were randomly assigned to three groups (n=5 per group): sham, tumor (vehicle) control and 10 mg/kg DETD-35 treatment group. DETD-35 was intraperitoneally […] injected every three days. The test mice were sacrificed by cervical dislocation at day 71, and the tumor were collected and measured for the volume (V) using calipers and calculated by the formula V=(L×W^2)/2, where L is the length and W is the width of tumor.

[1] = tested on: MDA-MB-231 lung metastasis; assay: Lung metastasis of MDA-MB-231 cells in SCID mice; assay type: in vivo, mouse
Experimental: Female SCID mice (5 weeks old, average body weight 19.59±1.26 g) were assigned to 8 groups: PIX group (5 mg/kg paclitaxel), DETD-35-2 group (2 mg/kg DETD-35), DETD-35-10 group (10 mg/kg DETD-35). PTX-5+DETD-35-2 group (5 mg/kg paclitaxel and 2 mg/kg DETD-35 administration alternatively for eleven doses of paclitaxel (PTX) and ten doses of DETD-35 in total), tumor (vehicle) group (5% DMSO), and sham group (5% DMSO). Pre-DETD-35-10 group was the mice administered 10 mg/kg DETD-35 every two days for three doses before the i.v. injection of 1×10^6 MDA-MB-231 tumor cells at day 0. All other drug or compounds were administered i.p. every three days starting from day 1. At the end of experiment (day 71), the test mice were sacrificed by cervical dislocation. The lung, liver, kidney, and spleen organs were removed and recorded weights and calculated for organ index (% of organ weight/body weight). The number of tumor colonies on lungs of test mice was counted.

[2] = tested on: A375-R acquired vemurafenib resistance melanoma cells; assay: MTT cell viability assay, PLX4032-resistant A375-R; assay type: cell-based, human; settings: Homo sapiens; 72 h, MTT
Experimental: A375-R, acquired vemurafenib resistance melanoma cell was generated from A375 parental cell and grown in same conditions as A375 cell.
Normal or cancer cells (2×10^3 to 1×10^4 cells/well) were seeded in 96-well plate for overnight and treated with different compounds for 24 h to 72 h. Cells growth were determined by MTT-based colorimetric assays according to. Viability of the test cells treated with vehicle (0.5% DMSO) only was defined as 100% viable. Survival of cells after treatment with DETDs was calculated using the following formula: viable cell number (%)=OD570 (treated cell culture)/OD570 (vehicle control)×100.
To study the mechanisms underlying how DETD-35 overcomes acquired resistance to BRAF inhibitor, we generated A375 cell line resistant to PLX4032 (designated A375-R). Briefly, A375 melanoma cells were seeded in T75 plate and treated with ascending concentration of PLX4032 (20, 50, 100, 250, 500, 1000, 2000 nM) through approximately 2 months and 20 passages.

MDA-MB-231 cells = assay: Compound-drug combination assay with PTX; assay type: cell-based, human; settings: 0-4 μM compound, 0-25 nM PTX
Experimental: (§1) Cell proliferation was measured by MTT assay. Isobologram analysis and Chou-Talalay method was used to determine the effects of compound drug combinations. The interaction of DETDs and PLX4032 or PTX was determined by the combination index (CI), and the CI plot was generated using CompuSyn software. The combined effects of two compounds can be categorized as follows: CI=1 indicates additive interaction, CI<1 indicates synergism, and CI>1 indicates antagonism.
To investigate whether or not DETD-35 and DETD-39 act synergistically with PTX against MDA-MB-231 cell activity, anti-proliferation assay using MTT reagent was performed to obtain the IC60 value of each compound. […] Based on the IC60 values, DETD-35 or DETD-39 ranging from 0 to 4 μM and PIX from 0 to 25 nM were used for compound-drug combination study. Classic isobologram analysis and Chou-Talalay method were conducted to investigate the synergistic effect of compound and drug. Combination index (CI) was calculated with CalcuSyn software (Version 2.0, Biosoft) and expressed as CI vs. Fa (fraction affected). CI<1 indicates synergy; CI=1 indicates additive effect; and CI>1 indicates antagonism.

[3] = tested on: phospho-MEK and phospho-ERK in A375-R cells; assay: Western blot of MAPK signaling, A375-R; assay type: cell-based, human
Experimental: Total cellular proteins were prepared from test cells as previously described. Protein concentration was determined by the Bradford method (Bio-Rad). Protein samples were resolved by 5% to 20% gradient SDS-PAGE and then underwent immunoblotting. Primary antibodies against ERK1/2 and GAPDH were from Santa Cruz Biotechnology (Santa Cruz, Calif., USA) and MEK, phospho-ERK1/2 and phospho-MEK were from Cell Signaling Technology (Danvers, Mass., USA). Appropriate horseradish peroxidase-conjugated secondary antibodies were used. Protein bands reacting to specific antibody were visualized by use of enhanced chemiluminescence (Amersham) with exposure to chemiluminescence light film (BioMax; Kodak Co.).

A375 melanoma cells = assay: Compound-drug combination assay with PLX4032; assay type: cell-based, human; settings: DETD-35 0.1 to 1 μM, PLX4032 10 to 100 nM, 72 h
Experimental: as §1
To investigate whether or not DETD-35 show synergism with PLX4032 against A375 melanoma cells, we performed anti-proliferation assay using MTT reagent to obtain IC50 of each compound. […] The synergistic effect was quantified by combination index (CI) analysis as stated above.

C=C1C(=O)O[C@H]2CC3=C[C@@H](C/C(C)=C/[C@@H](OC(=O)Cc4cccc5ccccc45)[C@H]12)OC3=O [DETD-35]
effect on mouse body weight (MDA-MB-231 mammary tumor; 10 mg/kg i.p.): without affecting the mouse body weight | fold decrease of tumor volume at day-71 vs tumor control (MDA-MB-231 mammary tumor; 10 mg/kg i.p.): 1.8 folds | tumor growth vs control group (MDA-MB-231 mammary tumor; 10 mg/kg i.p. every three days, day-56): significantly delayed | tumor volume at day-71 (MDA-MB-231 mammary tumor; 10 mg/kg i.p. every three days, tumor control 1268): 712 mm^3 | body weight ([1]; 2 mg/kg group): slightly lower than other groups with no statistical difference | reduction of number of tumor foci in lungs vs tumor control ([1]; post-treatment, 2 mg/kg i.p. every three days, not statistically significant): 9% | reduction of number of tumor foci in lungs vs tumor control ([1]; post-treatment, 10 mg/kg i.p. every three days): 50% | reduction of number of tumor foci in lungs vs tumor control ([1]; pretreatment, 10 mg/kg every two days, three doses before tumor cell injection): 83% | IC50 [2]: 800 nM | combination effect with PTX (isobologram, combination index) (MDA-MB-231 cells): acted synergistically | effect on MAP kinases (phospho-MEK, phospho-ERK), A375-R [3]: inhibited reactivation of MAP kinases | combination effect with PLX4032 (combination index) (A375 melanoma cells): acted synergistically
